Assay results as given in PubChem BioAssay AID306 (DTP/NCI, 2004).
“And” between values parts separate entries of the source, which are not always exact repeats. Equal values may be shown once. Inconclusive results and toxic doses are left out.

Tested on: BDF1 mice, L1210 Methyl-GAG-resistant leukemia, survival T/C
Assay: NCI In Vivo Anticancer Drug Screen. Data for tumor model L1210 Leukemia resistant to Methyl-GAG; NSC 32946 (subcutaneous) in B6D2F1 (BDF1) mice
Conditions: endpoint: mean survival time, higher = longer survival
Experimental: The antitumor activity of compounds was measured in mice bearing transplantable tumors. Survival or tumor size were measured and the results are expressed as the measurement made in the treated group (T) divided by the measurement made in the vehicle treated control group (C). The tumor model used in this assay is L1210 Leukemia resistant to Methyl-GAG; NSC 32946 (subcutaneous) in B6D2F1 (BDF1) mice

[1] = dose: 12.5 mg/kg/injection, schedule: Q01DX Z (ip), vehicle: saline
[2] = dose: 25.0 mg/kg/injection, schedule: Q01DX Z (ip), vehicle: saline
[3] = dose: 0.31 mg/kg/injection, schedule: Q01DX Z (ip), vehicle: carboxymethylcellulose (CMC)
[4] = dose: 0.63 mg/kg/injection, schedule: Q01DX Z (ip), vehicle: carboxymethylcellulose (CMC)
[5] = dose: 1.25 mg/kg/injection, schedule: Q01DX Z (ip), vehicle: carboxymethylcellulose (CMC)
[6] = dose: 2.5 mg/kg/injection, schedule: Q01DX Z (ip), vehicle: carboxymethylcellulose (CMC)
[7] = dose: 0.5 mg/kg/injection, schedule: Q01DX Z (ip), vehicle: carboxymethylcellulose (CMC)
[8] = dose: 1.0 mg/kg/injection, schedule: Q01DX Z (ip), vehicle: carboxymethylcellulose (CMC)
[9] = dose: 125.0 mg/kg/injection, schedule: Q01DX Z (ip), vehicle: carboxymethylcellulose (CMC)
[10] = dose: 500.0 mg/kg/injection, schedule: Q01DX Z (ip), vehicle: carboxymethylcellulose (CMC)
[11] = dose: 50.0 mg/kg/injection, schedule: Q01DX Z (ip), vehicle: saline
[12] = dose: 100.0 mg/kg/injection, schedule: Q01DX Z (ip), vehicle: saline
[13] = dose: 125.0 mg/kg/injection, schedule: Q01DX Z (ip), vehicle: saline
[14] = dose: 250.0 mg/kg/injection, schedule: Q01DX Z (ip), vehicle: saline
[15] = dose: 2000.0 mg/kg/injection, schedule: Q01DX Z (ip), vehicle: saline
[16] = dose: 6.25 mg/kg/injection, schedule: Q01DX Z (ip), vehicle: saline
[17] = dose: 6.25 mg/kg/injection, schedule: Q01DX Z (ip), vehicle: carboxymethylcellulose (CMC)
[18] = dose: 12.5 mg/kg/injection, schedule: Q01DX Z (ip), vehicle: carboxymethylcellulose (CMC)
[19] = dose: 500.0 mg/kg/injection, schedule: Q01DX Z (ip), vehicle: saline
[20] = dose: 1000.0 mg/kg/injection, schedule: Q01DX Z (ip), vehicle: saline
[21] = dose: 5.0 mg/kg/injection, schedule: Q01DX Z (ip), vehicle: carboxymethylcellulose (CMC)
[22] = dose: 15.0 mg/kg/injection, schedule: Q01DX Z (ip), vehicle: carboxymethylcellulose (CMC)
[23] = dose: 30.0 mg/kg/injection, schedule: Q01DX Z (ip), vehicle: carboxymethylcellulose (CMC)

CS(=O)(=O)OCC(O)C(O)COS(C)(=O)=O (stereo not given)
T/C (dose: 99.0 mg/kg/injection, schedule: Q01DX Z (ip), vehicle: saline): 101 % of control
T/C (dose: 188.0 mg/kg/injection, schedule: Q01DX Z (ip), vehicle: saline): 101 % of control
T/C (dose: 375.0 mg/kg/injection, schedule: Q01DX Z (ip), vehicle: saline): 101 % of control
T/C (dose: 750.0 mg/kg/injection, schedule: Q01DX Z (ip), vehicle: saline): 117 % of control and 120 % of control
T/C (dose: 1500.0 mg/kg/injection, schedule: Q01DX Z (ip), vehicle: saline): 109 % of control and 120 % of control
T/C (dose: 3000.0 mg/kg/injection, schedule: Q01DX Z (ip), vehicle: saline): 112 % of control

CN(N=O)C(N)=O
T/C (dose: 3.2 mg/kg/injection, schedule: Q01DX Z (ip), vehicle: saline): 97 % of control
T/C (dose: 6.3 mg/kg/injection, schedule: Q01DX Z (ip), vehicle: saline): 113 % of control
T/C [1]: 115 % of control
T/C [2]: 178 % of control

Nc1ncnc2c1ccn2C1OC(CO)C(O)C1O (stereo not given)
T/C [3]: 89 % of control and 97 % of control
T/C [4]: 91 % of control and 102 % of control
T/C [5]: 97 % of control and 112 % of control
T/C [6]: 94 % of control

NC(=O)N(CCCl)N=O
T/C [7]: 95 % of control
T/C [8]: 96 % of control and 101 % of control
T/C (dose: 2.0 mg/kg/injection, schedule: Q01DX Z (ip), vehicle: carboxymethylcellulose (CMC)): 100 % of control and 101 % of control

O=c1[nH]c(=O)n(C2CC(O)C(CO)O2)cc1I (stereo not given)
T/C (dose: 62.5 mg/kg/injection, schedule: Q01DX Z (ip), vehicle: carboxymethylcellulose (CMC)): 118 % of control
T/C [9]: 112 % of control
T/C [10]: 117 % of control

CN(N=O)C(=O)NC(C=O)C(O)C(O)C(O)CO (stereo not given)
T/C [1]: 101 % of control
T/C [2]: 106 % of control and 113 % of control
T/C [11]: 105 % of control and 110 % of control
T/C [12]: 160 % of control
T/C (dose: 200.0 mg/kg/injection, schedule: Q01DX Z (ip), vehicle: saline): 90 % of control

C1CN1c1nc(N2CC2)nc(N2CC2)n1
T/C (dose: 62.5 micrograms/kg/injection, schedule: Q01DX Z (ip), vehicle: saline): 96 % of control
T/C (dose: 250.0 micrograms/kg/injection, schedule: Q01DX Z (ip), vehicle: saline): 97 % of control
T/C (dose: 1000.0 micrograms/kg/injection, schedule: Q01DX Z (ip), vehicle: saline): 110 % of control

C[C@H](N)C(=O)N[C@@H]1[C@H]2C(=C(O)C[C@@H](O)[C@@H]2O)C(=O)O[C@@H]1C
T/C (dose: 31.25 mg/kg/injection, schedule: Q01DX Z (ip), vehicle: saline): 96 % of control
T/C [13]: 102 % of control
T/C [14]: 116 % of control
T/C [15]: 96 % of control

O=c1[nH]cc(F)c(=O)[nH]1
T/C [16]: 102 % of control
T/C [12]: 110 % of control

CSc1ncnc2c1ncn2C1OC(CO)C(O)C1O (stereo not given)
T/C [17]: 102 % of control
T/C [18]: 107 % of control
T/C (dose: 50.0 mg/kg/injection, schedule: Q01DX Z (ip), vehicle: carboxymethylcellulose (CMC)): 97 % of control

C[C@]12C=CC(=O)C=C1CC[C@@H]1[C@@H]2C(=O)C[C@@]2(C)[C@H]1CC[C@]2(O)C(=O)CO
T/C (dose: 25.0 mg/kg/injection, schedule: Q01DX Z (sc), vehicle: steriod suspending solution): 91 % of control and 115 % of control
T/C (dose: 50.0 mg/kg/injection, schedule: Q01DX Z (sc), vehicle: steriod suspending solution): 103 % of control
T/C (dose: 100.0 mg/kg/injection, schedule: Q01DX Z (sc), vehicle: steriod suspending solution): 150 % of control
T/C (dose: 200.0 mg/kg/injection, schedule: Q01DX Z (sc), vehicle: steriod suspending solution): 115 % of control
T/C (dose: 400.0 mg/kg/injection, schedule: Q01DX Z (sc), vehicle: steriod suspending solution): 112 % of control and 118 % of control

S=c1nc[nH]c2nc[nH]c12
T/C (dose: 12.5 mg/kg/injection, schedule: Q01DX Z (ip), vehicle: other): 107 % of control
T/C (dose: 37.5 mg/kg/injection, schedule: Q01DX Z (ip), vehicle: other): 252 % of control
T/C (dose: 50.0 mg/kg/injection, schedule: Q01DX Z (ip), vehicle: other): 153 % of control and 192 % of control
T/C (dose: 75.0 mg/kg/injection, schedule: Q01DX Z (ip), vehicle: other): 157 % of control
T/C (dose: 100.0 mg/kg/injection, schedule: Q01DX Z (ip), vehicle: other): 164 % of control
T/C (dose: 200.0 mg/kg/injection, schedule: Q01DX Z (ip), vehicle: other): 97 % of control and 119 % of control
T/C (dose: 300.0 mg/kg/injection, schedule: Q01DX Z (ip), vehicle: other): 98 % of control

CCOC(N)=O
T/C [13]: 99 % of control
T/C [14]: 89 % of control
T/C [19]: 101 % of control
T/C [20]: 90 % of control

CC(CCC(C)OS(C)(=O)=O)OS(C)(=O)=O (stereo not given)
T/C [21]: 90 % of control
T/C (dose: 10.0 mg/kg/injection, schedule: Q01DX Z (ip), vehicle: carboxymethylcellulose (CMC)): 87 % of control
T/C (dose: 20.0 mg/kg/injection, schedule: Q01DX Z (ip), vehicle: carboxymethylcellulose (CMC)): 95 % of control

CCCCCCCCCCCCNCCCCCCCCCCCC
T/C (dose: 7.5 mg/kg/injection, schedule: Q01DX Z (ip), vehicle: carboxymethylcellulose (CMC)): 94 % of control
T/C [22]: 101 % of control
T/C [23]: 103 % of control

O=C(O)CCCc1ccc(N(CCCl)CCCl)cc1
T/C [17]: 91 % of control
T/C [18]: 98 % of control
T/C (dose: 25.0 mg/kg/injection, schedule: Q01DX Z (ip), vehicle: carboxymethylcellulose (CMC)): 104 % of control

CCN(CC)c1ccc2cc3ccc(=[N+](CC)CC)cc-3oc2c1
T/C (dose: 0.08 mg/kg/injection, schedule: Q01DX Z (ip), vehicle: carboxymethylcellulose (CMC)): 117 % of control
T/C (dose: 0.16 mg/kg/injection, schedule: Q01DX Z (ip), vehicle: carboxymethylcellulose (CMC)): 95 % of control
T/C [3]: 91 % of control
T/C (dose: 0.32 mg/kg/injection, schedule: Q01DX Z (ip), vehicle: carboxymethylcellulose (CMC)): 103 % of control
T/C [4]: 91 % of control
T/C [5]: 87 % of control
T/C [6]: 91 % of control
T/C [21]: 95 % of control

O=c1[nH]c(=O)n(C2CC(O)C(CO)O2)cc1Br (stereo not given)
T/C (dose: 31.0 mg/kg/injection, schedule: Q01DX Z (ip), vehicle: carboxymethylcellulose (CMC)): 95 % of control
T/C (dose: 63.0 mg/kg/injection, schedule: Q01DX Z (ip), vehicle: carboxymethylcellulose (CMC)): 92 % of control
T/C [9]: 113 % of control
T/C [10]: 118 % of control
T/C (dose: 1000.0 mg/kg/injection, schedule: Q01DX Z (ip), vehicle: carboxymethylcellulose (CMC)): 120 % of control

Cc1cc(N(CCCl)CCCl)ccc1N=Nc1ccccc1C(=O)O
T/C [22]: 96 % of control
T/C [23]: 99 % of control
T/C (dose: 60.0 mg/kg/injection, schedule: Q01DX Z (ip), vehicle: carboxymethylcellulose (CMC)): 96 % of control

O[C@H](CN1CC1)[C@@H](O)CN1CC1
T/C (dose: 0.06 mg/kg/injection, schedule: Q01DX Z (ip), vehicle: carboxymethylcellulose (CMC)): 97 % of control
T/C (dose: 0.12 mg/kg/injection, schedule: Q01DX Z (ip), vehicle: carboxymethylcellulose (CMC)): 110 % of control
T/C [7]: 170 % of control and 178 % of control
T/C [8]: 100 % of control
T/C (dose: 63.0 micrograms/kg/injection, schedule: Q01DX Z (ip), vehicle: carboxymethylcellulose (CMC)): 101 % of control
T/C (dose: 125.0 micrograms/kg/injection, schedule: Q01DX Z (ip), vehicle: carboxymethylcellulose (CMC)): 109 % of control

O=P1(N(CCCl)CCCl)NCCCO1 (stereo not given)
T/C [16]: 93 % of control
T/C [1]: 122 % of control and 123 % of control
T/C [2]: 254 % of control and 151 % of control
T/C [11]: 257 % of control and 98 % of control
T/C [12]: 90 % of control and 98 % of control

CC(=O)N(C)C
T/C [13]: 100 % of control
T/C [14]: 94 % of control
T/C [19]: 102 % of control
T/C [20]: 109 % of control
T/C [15]: 105 % of control
T/C (dose: 4000.0 mg/kg/injection, schedule: Q01DX Z (ip), vehicle: saline): 154 % of control
